From patent US9669028B2, “Substituted 5-(pyrazin-2-yl)-1H-pyrazolo [3, 4-B] pyridine and pyrazolo [3, 4-B] pyridine derivatives as protein kinase inhibitors” (Arrien Pharmaceuticals LLC, priority 2011, dated 2017)

Assays:
[1] = target: LRRK2 (Homo sapiens (Human), UniProt Q5S007); experiment: LRRK2 Kinase Assay; type: biochemical; settings: 10 μM ATP
Procedure: (§1) Briefly, specific kinase/substrate pairs along with required cofactors were prepared in reaction buffer; 20 mM Hepes (pH 7.5), 10 mM MgCl2, 1 mM EGTA, 0.02% Brij35, 0.02 mg/ml BSA, 0.1 mM Na3VO4, 2 mM DTT, 1% DMSO. Compounds were delivered into the reaction, followed ˜20 min later by addition of a mixture of ATP (Sigma) and 33P ATP (PerkinElmer) to a final concentration of 10 μM. […] IC50 values and curve fits were obtained using Prism (GraphPad Software). Kinome tree representations were prepared using Kinome Mapper (http://www.reactionbiology.com/apps/kinome/mapper/Launch Kinome.htm).
For the wild type LRRK the 2×LRRK2/ERM (LRRKtide) mixture was prepared in 50 mM Tris pH 8.5, 0.01% BRIJ-35, 10 mM MgCl2, 1 mM EGTA, 0.02% NaN3. […] After 1 hour Kinase Reaction incubation, 5 μL of Detection Mix was added.

[2] = target: LRRK2 G2019S (Homo sapiens (Human), UniProt Q5S007, G2019S); experiment: LRRK2 G2019S Kinase Assay; type: biochemical; settings: 10 μM ATP
Procedure: Procedure: Enzyme was incubated with substrate peptide in reaction buffer in the presence and absence of test compounds or Staurosporine. All additions were done on ice, followed by the addition of ATP mix. Wells were uniformly mixed using an Eppendorff plate shaker and incubated at 30° C. for 20 min, and stopped by the addition of 5 μl of 3% phosphoric acid. Volume was increased to 100 μl by adding 0.8% phosphoric acid which was then transferred to PC filter mats (Millipore), pre-equilibrated with 70% ethanol and water. Plates were washed thrice with 100 μl 0.8% phosphoric acid and dried for an hour at 60° C. 100 μl scintillation fluid was added into each well and reading taken in Perkin Elmer TOPCOUNT beta counter. […] A validation EC50 curve was generated by plotting CPM for each Staurosporine concentration on y-axis against the Log concentration of Staurosporine (nM) on the x-axis followed by a best fit curve through the points.
After 1 hour Kinase Reaction incubation, 5 μL of Detection Mix was added.

[3] = target: DYRK1A (Homo sapiens (Human), UniProt Q13627); experiment: In vitro DYRK1A inhibition assay; type: biochemical
Procedure: as §1
The 2×DYRK1A/Ser/Thr 18 mixture was prepared in 50 mM HEPES pH 7.5, 0.01% BRIJ-35, 10 mM MgCl2, 1 mM EGTA.

[4] = system: 299 protein kinases+17 additional preview kinases; experiment: Protein Kinase Selectivity Profiler; type: biochemical, human; settings: 10 μM ATP
Procedure: In vitro profiling of the 317 member kinase panel was performed at Reaction Biology Corporation using the “HotSpot” assay platform. Briefly, specific kinase/substrate pairs along with required cofactors were prepared in reaction buffer; 20 mM Hepes (pH 7.5), 10 mM MgCl2, 1 mM EGTA, 0.02% Brij35, 0.02 mg/ml BSA, 0.1 mM Na3VO4, 2 mM DTT, 1% DMSO. Compounds were delivered into the reaction, followed ˜20 min later by addition of a mixture of ATP (Sigma) and 33P ATP (PerkinElmer) to a final concentration of 10 μM. Reactions were carried out at 25° C. for 120 min, followed by spotting of the reactions onto P81 ion exchange filter paper (Whatman). Unbound phosphate was removed by extensive washing of filters in 0.75% phosphoric acid. […] IC50 values and curve fits were obtained using Prism (GraphPad Software). Kinome tree representations were prepared using Kinome Mapper (http://www.reactionbiology.com/apps/kinome/mapper/Launch Kinome.htm). Specifically for the LRRK2 enzyme the substrate LRRKtide (gene bank and protein access numbers NP_940980.2 Q5S007) and clone aa 970-2527 expressed in baculovirus in insect cells with N-terminal GST tag was employed in the study protocol. In the case of DYRK1A (SEQ ID NO 16) the substrate casein (gene bank and protein access numbers NP_001387 Q13627) full length clone expressed in insect with n-terminal tag was used.
A control compound was tested in 10-dose IC50 mode with 3-fold serial dilution starting at 20 μM. Reactions were carried out at 10 μM ATP. Data pages include raw data, % Enzyme activity (relative to DMSO controls), and curve fits.

[5] = system: MPTP-injected C57 black mice; experiment: MPTP mouse model of Parkinson's disease, oral pre-treatment; type: in vivo; settings: for protection against MPTP-induced TH cell loss and dopaminergic degeneration in substantia nigra and striatum: 10 mg/kg and 30 mg/kg oral; for locomotor activities in MPTP-injected mice / striatal dopamine levels in MPTP treated mice: orally administered, pre-treatment
[6] = system: MPTP-injected C57 black mice; experiment: MPTP mouse model, intravenous pre-treatment; type: in vivo; settings: 5 mg/kg i.v.
Procedure: 24 C57 black mice (C57/bl6, 6-8 week old, and 25-30 g) were purchased from Charles River Laboratories, Ohio. […] Prior to treatment animals were pre-trained on rotarod for at least 3 minutes every day for three successive days. Test compound (5 mg/kg) was administered intravenously to group C animals, 24 h prior to MPTP-injection and continued daily for additional 11 days. MPTP was dissolved in PBS and injected intraperitoneally (i.p.) at doses of 25 mg/kg, once daily for 5 days to group B and C animals. Group A animals were injected with saline (i.p.) to be used as controls. Urine and Faeces were collected on Day 8, behavioural studies were performed on Day 9 (4-days post-MPTP). On day 12 (7 days post-MPTP), 4 animals/group were sacrificed, different brains regions including striatum and substantia nigra were dissected. Left striatum were used for neurochemical analysis. Other 4 animals/group were perfused and used for TH immunohistological studies.

[7] = in vivo; settings: male, Sprague Dawley, rat
Excerpt: To investigate the pharmacokinetic profiles of test compound following intravenous bolus administration and oral gavage in male Sprague Dawley rats.

Sequence of LRRK2 G2019S (Q5S007 970-2527 G2019S): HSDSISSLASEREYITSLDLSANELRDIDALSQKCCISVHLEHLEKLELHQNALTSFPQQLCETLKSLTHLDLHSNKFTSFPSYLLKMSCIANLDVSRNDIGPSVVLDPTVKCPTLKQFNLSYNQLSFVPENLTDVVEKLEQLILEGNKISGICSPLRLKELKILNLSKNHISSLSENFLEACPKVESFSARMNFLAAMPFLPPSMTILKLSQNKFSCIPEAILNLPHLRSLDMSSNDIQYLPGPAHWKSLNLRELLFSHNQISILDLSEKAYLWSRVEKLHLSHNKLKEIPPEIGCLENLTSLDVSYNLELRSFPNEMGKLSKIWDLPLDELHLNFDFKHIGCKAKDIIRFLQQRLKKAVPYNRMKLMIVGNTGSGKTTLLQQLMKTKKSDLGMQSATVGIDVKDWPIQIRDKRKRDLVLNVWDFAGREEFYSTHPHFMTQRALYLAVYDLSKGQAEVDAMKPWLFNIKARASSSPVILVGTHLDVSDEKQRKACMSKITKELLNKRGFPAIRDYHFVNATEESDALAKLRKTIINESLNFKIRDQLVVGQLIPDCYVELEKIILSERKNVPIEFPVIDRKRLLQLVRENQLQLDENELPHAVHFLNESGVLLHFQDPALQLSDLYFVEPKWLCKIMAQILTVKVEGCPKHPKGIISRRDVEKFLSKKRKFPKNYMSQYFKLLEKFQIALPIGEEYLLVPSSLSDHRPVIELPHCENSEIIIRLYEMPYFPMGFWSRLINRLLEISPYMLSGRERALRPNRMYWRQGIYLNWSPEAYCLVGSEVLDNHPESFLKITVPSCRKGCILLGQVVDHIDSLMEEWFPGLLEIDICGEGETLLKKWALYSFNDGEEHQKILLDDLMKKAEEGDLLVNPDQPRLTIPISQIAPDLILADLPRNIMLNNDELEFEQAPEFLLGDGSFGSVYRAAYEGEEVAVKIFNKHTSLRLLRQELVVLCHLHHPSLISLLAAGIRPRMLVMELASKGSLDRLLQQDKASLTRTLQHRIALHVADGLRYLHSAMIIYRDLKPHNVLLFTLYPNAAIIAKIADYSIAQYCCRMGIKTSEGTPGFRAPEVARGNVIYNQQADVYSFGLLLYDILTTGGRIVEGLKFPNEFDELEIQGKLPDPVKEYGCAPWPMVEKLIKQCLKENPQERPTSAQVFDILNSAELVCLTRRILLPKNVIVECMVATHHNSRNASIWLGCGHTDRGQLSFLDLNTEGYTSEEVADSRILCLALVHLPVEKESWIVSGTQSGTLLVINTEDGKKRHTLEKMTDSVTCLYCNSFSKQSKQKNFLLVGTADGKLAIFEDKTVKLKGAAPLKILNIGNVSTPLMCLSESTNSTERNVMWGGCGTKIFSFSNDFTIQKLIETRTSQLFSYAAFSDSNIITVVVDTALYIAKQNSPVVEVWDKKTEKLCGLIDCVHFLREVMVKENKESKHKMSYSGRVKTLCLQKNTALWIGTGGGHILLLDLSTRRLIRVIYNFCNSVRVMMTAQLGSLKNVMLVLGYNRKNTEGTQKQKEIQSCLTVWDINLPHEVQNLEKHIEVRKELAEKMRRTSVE
Sequence of LRRK2 (Q5S007 970-2527): as the sequence (Q5S007 970-2527 G2019S) above, with S1050G counted along it

| SMILES | IC50 [1] | IC50 [2] | IC50 [3] | further results |
| --- | --- | --- | --- | --- |
| Cc1n[nH]c2ncc(-c3cncc(N(C)CC4CCOCC4)n3)cc12 [Compound 71, N-methyl-6-(3-methyl-1H-pyrazolo[3,4-b]pyridin-5-yl)-N-((tetrahydro-2H-pyran-4-yl)methyl)pyrazin-2-amine] | < 500 nM | < 500 nM | < 500 nM | activity against kinases in broader scope, relative to DMSO control ([4]; ABL1 T315I, ALK2, ARK5, Aurora A/B/C, BRAF, C-KIT, CLK1-4, CSF1R, DYRK1A-4, FLT3, GSK3β, JAK1-3, KDR, LCK ... TRKA-C, single dose): 5-15%; protection against MPTP-induced TH cell loss and dopaminergic degeneration in substantia nigra and striatum [5]: dose-dependent protection; locomotor activities in MPTP-injected mice [5]: Improve Locomotor Activities; striatal dopamine levels in MPTP treated mice [5]: Restore Striatal Dopamine Levels; protection against MPTP-induced TH neuronal loss in the substantia nigra and in the striatum [6]: Protect Against MPTP-Induced TH Neuronal Loss; AUC(0-t) ([7]; iv, 5 mg/kg): 1020 ng·h/mL; Vd ([7]; iv, 5 mg/kg): 15.2 L/kg; clearance ([7]; iv, 5 mg/kg): 123 mL/min/kg; half-life ([7]; iv, 5 mg/kg): 2.26 h; AUC(0-t) ([7]; po, 30 mg/kg): 1040 ng·h/mL; Cmax ([7]; po, 30 mg/kg): 133 ng/mL; F ([7]; po, 30 mg/kg): 24%; Tmax ([7]; po, 30 mg/kg): 6.7 h |
| c1ccc2c(c1)CCN2c1cncc(-c2cnc3[nH]ccc3c2)n1 [Compound 134, 5-(6-(indolin-1-yl)pyrazin-2-yl)-1H-pyrrolo[2,3-b]pyridine] | < 500 nM | < 500 nM | < 500 nM | % enzyme inhibition relative to DMSO controls ([4]; LRRK2, LRRK2 G2019S, CHK1, DYRK1A, FLT3, MLK1, TNIK, TRKA, single dose 0.5 μM, 1 μM): 5-15%; protection against MPTP-induced TH cell loss and dopaminergic degeneration in substantia nigra and striatum [5]: dose-dependent protection; locomotor activities in MPTP-injected mice [5]: Improve Locomotor Activities; striatal dopamine levels in MPTP treated mice [5]: Restore Striatal Dopamine Levels; protection against MPTP-induced TH neuronal loss in the substantia nigra and in the striatum [6]: Protect Against MPTP-Induced TH Neuronal Loss; AUC(0-t) ([7]; iv, 5 mg/kg): 1020 ng·h/mL; Vd ([7]; iv, 5 mg/kg): 15.2 L/kg; clearance ([7]; iv, 5 mg/kg): 123 mL/min/kg; half-life ([7]; iv, 5 mg/kg): 2.26 h; AUC(0-t) ([7]; po, 30 mg/kg): 1040 ng·h/mL; Cmax ([7]; po, 30 mg/kg): 133 ng/mL; F ([7]; po, 30 mg/kg): 24%; Tmax ([7]; po, 30 mg/kg): 6.7 h |
| OC1CCN(c2cncc(-c3cnc4[nH]ccc4c3)n2)CC1 [Compound 137, 1-(6-(1H-pyrrolo[2,3-b]pyridin-5-yl)pyrazin-2-yl)piperidin-4-ol] | < 500 nM | < 500 nM | < 500 nM | – |
| CN(CC1CCOCC1)c1cncc(-c2cnc3[nH]ccc3c2)n1 [Compound 143, N-methyl-6-(1H-pyrrolo[2,3-b]pyridin-5-yl)-N-((tetrahydro-2H-pyran-4-yl)methyl)pyrazin-2-amine] | < 500 nM | < 500 nM | < 500 nM | – |
| CN(CC1CCOCC1)c1cncc(-c2cnc3[nH]cc(Cl)c3c2)n1 [Compound 144, 6-(3-chloro-1H-pyrrolo[2,3-b]pyridin-5-yl)-N-methyl-N-((tetrahydro-2H-pyran-4-yl)methyl)pyrazin-2-amine] | < 500 nM | < 500 nM | < 500 nM | – |
| CN(CC1CCOCC1)c1cncc(-c2cnc3[nH]cc(F)c3c2)n1 [Compound 145, 6-(3-fluoro-1H-pyrrolo[2,3-b]pyridin-5-yl)-N-methyl-N-((tetrahydro-2H-pyran-4-yl)methyl)pyrazin-2-amine] | < 500 nM | < 500 nM | < 500 nM | – |
| Clc1c[nH]c2ncc(-c3cncc(N4CCOCC4)n3)cc12 [Compound 149, 4-(6-(3-chloro-1H-pyrrolo[2,3-b]pyridin-5-yl)pyrazin-2-yl)morpholine] | < 500 nM | < 500 nM | < 500 nM | – |

Now from value to compound, other results behind:

| IC50 [1] | IC50 [2] | IC50 [3] | SMILES | further results |
| --- | --- | --- | --- | --- |
| < 500 nM | < 500 nM | < 500 nM | Fc1c[nH]c2ncc(-c3cncc(N4CCOCC4)n3)cc12 [Compound 150, 4-(6-(3-fluoro-1H-pyrrolo[2,3-b]pyridin-5-yl)pyrazin-2-yl)morpholine] | – |
| < 500 nM | < 500 nM | < 500 nM | CN1CCN(Cc2cccc(-c3cnc4[nH]ccc4c3)c2)CC1 [Compound 152, 5-(3-((4-methylpiperazin-1-yl)methyl)phenyl)-1H-pyrrolo[2,3-b]pyridine] | – |
| < 500 nM | < 500 nM | < 500 nM | COc1ccccc1-c1n[nH]c2ncc(-c3ccsc3)cc12 [Compound 183, 3-(2-methoxyphenyl)-5-(thiophen-3-yl)-1H-pyrazolo[3,4-b]pyridine] | – |
| < 500 nM | < 500 nM | < 500 nM | COc1ccccc1-c1n[nH]c2ncc(-c3ccoc3)cc12 [Compound 184, 5-(furan-3-yl)-3-(2-methoxyphenyl)-1H-pyrazolo[3,4-b]pyridine] | – |
